Results: US8093231B2, “Sulfonylethyl phosphorodiamidates” (Telik, Inc., priority 2004, dated 2012)
Where two headings read alike, the source gives them in different places.

Experiments:
Type in all cases: cell-based, human
MX-1 (breast carcinoma) = assay: Cytotoxicity/growth inhibition assay, MX-1; details: read-out: IC50 (MX-1)
In short: (§1)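 Test compounds in DMSO (0.1–200 μM; final DMSO 0.5%) added to freshly diluted cells (3×10^3 cells/mL MX-1 and DLD-1, 6×10^3 cells/mL LNCap), triplicate wells. Cultured ~three doubling times (3 days MX-1, 4 days DLD-1/LNCap). CellTiter-Glo luminescence, 15 min room temperature; growth expressed as % of DMSO solvent control.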

[1] = system: DLD-1 (colorectal adenocarcinoma); assay: Cytotoxicity/growth inhibition assay, DLD-1; details: read-out: IC50 (DLD-1)
In short: as §1

[2] = system: LNCap (prostate carcinoma); assay: Cytotoxicity/growth inhibition assay, LNCap; details: read-out: IC50 (LNCap)
In short: as §1

[3] = MX-1 cells, 3 days culture, CellTiter-Glo, 0.1-200 μM tested
[4] = DLD-1 cells, 4 days culture, CellTiter-Glo, 0.1-200 μM tested
[5] = LNCap cells, 4 days culture, CellTiter-Glo, 0.1-200 μM tested

SMILES | IC50 (MX-1 (breast carcinoma); [3]) [µM] | IC50 [1, 4] [µM] | IC50 [2, 5] [µM] | IC50 (MX-1 (breast carcinoma); Homo sapiens, MX1, 72 h) [µM] | IC50 ([1]; Homo sapiens, DLD-1, 96 h) [µM] | IC50 ([2]; Homo sapiens, LNCaP, 96 h) [µM]
O=C(NCc1ccccc1)[C@H](CS(=O)(=O)CCOP(=O)(N(CCCl)CCCl)N(CCCl)CCCl)NS(=O)(=O)c1ccccc1 [Compound 91A] | 10.7 | 4.8 | 33.3 |  |  | 
N[C@@H](CS(=O)(=O)CCOP(=O)(N(CCCl)CCCl)N(CCCl)CCCl)C(=O)N1CCOCC1 [Compound 87A] | 19.5 | 9.7 | 136 |  |  | 
O=C(c1ccc(CS(=O)(=O)CCOP(=O)(N(CCCl)CCCl)N(CCCl)CCCl)cc1)N(CCO)CCO [Compound 169A] | 34.5 | 7.6 | 144 |  |  | 
NCC(=O)Nc1cccc(CS(=O)(=O)CCOP(=O)(N(CCCl)CCCl)N(CCCl)CCCl)c1 [Compound 143A] | 15.9 | 10.9 | 110 |  |  | 
O=C(c1ccc(CS(=O)(=O)CCOP(=O)(N(CCCl)CCCl)N(CCCl)CCCl)cc1)N1CCC(O)CC1 [Compound 166A] | 20.5 | 6.3 | 90.2 |  |  | 
NC(=O)C1CCN(C(=O)c2ccc(CS(=O)(=O)CCOP(=O)(N(CCCl)CCCl)N(CCCl)CCCl)cc2)CC1 [Compound 170A] | 31.4 | 10.8 | ≥ 200 |  |  | 
NC(=O)c1ccc(CS(=O)(=O)CCOP(=O)(N(CCCl)CCCl)N(CCCl)CCCl)cc1 [Compound 162A] | 7.1 | 4.7 | 55.1 |  |  | 
N#Cc1ccc(S(=O)(=O)N[C@@H](CS(=O)(=O)CCOP(=O)(N(CCCl)CCCl)N(CCCl)CCCl)C(=O)N2CCN(C(=O)c3ccco3)CC2)cc1 [Compound 102A] | 19.9 | 9.2 | 81.6 |  |  | 
O=P(OCCS(=O)(=O)CCO)(N(CCCl)CCCl)N(CCCl)CCCl [Compound 16A] | 13 | 9.6 | 36.4 |  |  | 
O=C(CS(=O)(=O)CCOP(=O)(N(CCCl)CCCl)N(CCCl)CCCl)Nc1ccccn1 [Compound 24A] | 11.2 | 5.5 | 12.1 |  |  | 
N#CCNC(=O)c1ccc(CS(=O)(=O)CCOP(=O)(N(CCCl)CCCl)N(CCCl)CCCl)cc1 [Compound 164A] | 10.7 | 5.8 | 45.9 |  |  | 
CC(C)(C)S(=O)(=O)CCOP(=O)(N(CCCl)CCCl)N(CCCl)CCCl [Compound 7A] | 20.6 | 21.8 | 165 |  |  | 
O=P(OCCS(=O)(=O)c1ccc(F)cc1)(N(CCCl)CCCl)N(CCCl)CCCl [Compound 111A] | 1.3 | 0.6 | 20.1 |  |  | 
CN(CCO)C(=O)c1ccc(CS(=O)(=O)CCOP(=O)(N(CCCl)CCCl)N(CCCl)CCCl)cc1 [Compound 158A] | 35.4 | 17.5 | 85.2 |  |  | 
N#Cc1ccc(CS(=O)(=O)CCOP(=O)(N(CCCl)CCCl)N(CCCl)CCCl)cc1 [Compound 153A] | 3 | 1.8 | 6.9 |  |  | 
CC(C)NC(=O)[C@H](CS(=O)(=O)CCOP(=O)(N(CCCl)CCCl)N(CCCl)CCCl)NC(=O)OC(C)(C)C [Compound 84A] | 10.6 | 6 | 29.6 |  |  | 
O=C(c1ccco1)N1CCN(C(=O)[C@H](CS(=O)(=O)CCOP(=O)(N(CCCl)CCCl)N(CCCl)CCCl)NS(=O)(=O)c2ccccc2)CC1 [Compound 93A] | 19.3 | 13.2 | 59.1 |  |  | 
CC(C)(C)OC(=O)N[C@@H](CS(=O)(=O)CCOP(=O)(N(CCCl)CCCl)N(CCCl)CCCl)C(=O)NCCO [Compound 86A] | 25.1 | 10.3 | 73.5 |  |  | 
O=P(OCCS(=O)(=O)c1ccc(-c2ccccc2)cc1)(N(CCCl)CCCl)N(CCCl)CCCl [Compound 113A] | 10.9 | 2.2 | 18.4 |  |  | 
O=P(OCCS(=O)(=O)Cc1cccc(CS(=O)(=O)CCOP(=O)(N(CCCl)CCCl)N(CCCl)CCCl)c1)(N(CCCl)CCCl)N(CCCl)CCCl [Compound 14B] | 2.3 | 3.2 | 5.7 |  |  | 

SMILES | IC50 (MX-1 (breast carcinoma); [3]) [µM] | IC50 [1, 4] [µM] | IC50 [2, 5] [µM] | IC50 (MX-1 (breast carcinoma); Homo sapiens, MX1, 72 h) [µM] | IC50 ([1]; Homo sapiens, DLD-1, 96 h) [µM] | IC50 ([2]; Homo sapiens, LNCaP, 96 h) [µM]
COC(=O)c1ccc(NC(=O)CS(=O)(=O)CCOP(=O)(N(CCCl)CCCl)N(CCCl)CCCl)cc1 [Compound 30A] | 9.1 | 6.5 | 13.2 |  |  | 
NC(=O)[C@@H](N)CS(=O)(=O)CCOP(=O)(N(CCCl)CCCl)N(CCCl)CCCl [Compound 78A] | 18.8 | 6.3 | ≥ 200 |  |  | 
O=C(c1ccc(CS(=O)(=O)CCOP(=O)(N(CCCl)CCCl)N(CCCl)CCCl)cc1)N1CCCC1 [Compound 156A] | 4.8 | 3.5 | 31.4 |  |  | 
CC(C(C)S(=O)(=O)CCOP(=O)(N(CCCl)CCCl)N(CCCl)CCCl)S(=O)(=O)CCOP(=O)(N(CCCl)CCCl)N(CCCl)CCCl (stereo not drawn) [Compound 2B] | ≥ 200 | 0.3 | 10.9 |  |  | 
O=C(CS(=O)(=O)CCOP(=O)(N(CCCl)CCCl)N(CCCl)CCCl)N1CCN(Cc2ccccc2)CC1 [Compound 19A] | 14.8 | 8.1 | 17.8 |  |  | 
Cc1cccc(S(=O)(=O)CCOP(=O)(N(CCCl)CCCl)N(CCCl)CCCl)c1 [Compound 110A] | 2.7 | 1.3 | 20.5 |  |  | 
O=P(OCCS(=O)(=O)c1cccc2c(S(=O)(=O)CCOP(=O)(N(CCCl)CCCl)N(CCCl)CCCl)cccc12)(N(CCCl)CCCl)N(CCCl)CCCl [Compound 23B, 1,5-di[[2-[[bis[bis(2-chloroethyl)amino]phosphinyl]oxy]ethyl]sulfonyl]naphthalene] |  |  |  | 1.1 | 0.7 | 3.8
O=P(OCCS(=O)(=O)c1ccccc1S(=O)(=O)CCOP(=O)(N(CCCl)CCCl)N(CCCl)CCCl)(N(CCCl)CCCl)N(CCCl)CCCl [Compound 10B] | 10.8 | 6.1 | 1.9 |  |  | 
N[C@@H](CS(=O)(=O)CCOP(=O)(N(CCCl)CCCl)N(CCCl)CCCl)C(=O)NCCO [Compound 88A] | 17.9 | 9.5 | 126 |  |  | 
Cc1ccc(CS(=O)(=O)CCOP(=O)(N(CCCl)CCCl)N(CCCl)CCCl)cc1 [Compound 130A] | 6.5 | 5.1 | 22 |  |  | 
Cc1ccc(S(=O)(=O)CCOP(=O)(N(CCCl)CCCl)N(CCCl)CCCl)cc1 [Compound 107A] | 2.5 | 1.6 | 18.1 |  |  | 
O=P(OCCS(=O)(=O)C1CCCCC1)(N(CCCl)CCCl)N(CCCl)CCCl [Compound 11A] | 10.4 | 4 | 18.1 |  |  | 
O=P(OCCS(=O)(=O)Cc1ccccn1)(N(CCCl)CCCl)N(CCCl)CCCl [Compound 181A] | 8.4 | 7.4 | 26.4 |  |  | 
N[C@@H](CCC(=O)Nc1cccc(CS(=O)(=O)CCOP(=O)(N(CCCl)CCCl)N(CCCl)CCCl)c1)C(=O)O [Compound 147A] | 12.2 | 11.1 | 63.9 |  |  | 
O=P(OCCS(=O)(=O)c1ccncc1)(N(CCCl)CCCl)N(CCCl)CCCl [Compound 120A] | 7.1 | 3.6 | 12.2 |  |  | 
COc1ccc(S(=O)(=O)CCOP(=O)(N(CCCl)CCCl)N(CCCl)CCCl)cc1 [Compound 115A] | 5.3 | 4.1 | 18.5 |  |  | 
Nc1cccc(CS(=O)(=O)CCOP(=O)(N(CCCl)CCCl)N(CCCl)CCCl)c1 [Compound 141A] | 17.3 | 12.9 | 45.9 |  |  | 
COC(=O)[C@H](CS(=O)(=O)CCOP(=O)(N(CCCl)CCCl)N(CCCl)CCCl)NS(=O)(=O)c1ccccc1 [Compound 80A] | 27.1 | 10.7 | 80.2 |  |  | 
O=P(OCCS(=O)(=O)CCOCCS(=O)(=O)CCOP(=O)(N(CCCl)CCCl)N(CCCl)CCCl)(N(CCCl)CCCl)N(CCCl)CCCl [Compound 8B] | 10.9 | 6.5 | 28 |  |  | 
